The results in this text go back to patent publication US8536160B2, “Azaheterocyclyl derivatives of androstanes and androstenes as medicaments for cardiovascular disorders” (priority 2006, dated 2013).

The test system of one series is anesthetized guinea-pig. The experiment in a line: Inotropic effect and lethal dose, slow intravenous infusion in anesthetized guinea-pig. Format: in vivo. More on the design: Maximum dose infused: unit not given here.
Series [1] concerns the target Dog Kidney Na+, K+-ATPase (Canis lupus familiaris, UniProt P50997). The experiment in a line: Inhibition of the enzymatic activity of purified Na+,K+-ATPase (hydrolysis of 32P-ATP). It is filed as biochemical.
Setting [2] is: dog kidney enzyme, hydrolysis of 32P-ATP in presence and absence of compound, read-out: Na+, K+-ATPase Inhibition IC50.
[3] abbreviates: read-out: Na+, K+-ATPase Inhibition IC50.

One may read the IC50 as the point on the concentration scale where inhibition reaches its midpoint.

Structures can show the parent of a compound that is named as a salt. Where two headings read alike, the source gives them in different places.

Procedure for anesthetized guinea-pig: The inotropic activity is shown as maximum increase in contractile force (Emax measured as +dP/dTmax), dose inducing maximum positive inotropic effect (EDmax), inotropic potency (ED80, dose increasing +dP/dTmax by 80%); the toxicity, as the ratio between lethal dose and inotropic potency, or safety ratio, (calculated for the died animals); the maximum dose infused in the survived animals; the duration of the inotropic effect as the decrease of the effect from the EDmax measured 20 minutes after the end of the infusion.

As for `COC(=O)C1CC2C3CCC(=O)C3(C)CCC2C2(C)CCC(=NOC3CCNC3)CC12` (mixture of isomers) [I-au, (Z,E) 3-(3-(R)-Pyrrolidinyloxyimino)-6α-methoxycarbonylandrostane-17-one hydrochloride], in the series with anesthetized guinea-pig (Cavia porcellus, iv, 1.5 h, slow i.v. infusion over 90 minutes, anesthetized guinea-pig, maximum increase in contractile force, read-out: Emax % increase in +dP/dTmax), the Emax was determined as 164%. Besides, the ED80 with anesthetized guinea-pig (Cavia porcellus, iv, 1.5 h, slow i.v. infusion over 90 minutes, anesthetized guinea-pig, read-out: ED80 (inotropic potency, dose increasing +dP/dTmax by 80%)) worked out at 11 µmol/kg. Further, the ED (max) in the series with anesthetized guinea-pig (Cavia porcellus, iv, 1.5 h, slow i.v. infusion over 90 minutes, anesthetized guinea-pig, read-out: EDmax (dose inducing maximum positive inotropic effect)) was 23.3 µmol/kg. Moreover, the “% decrease from Emax after 20 min from the end of the infusion” value with anesthetized guinea-pig (duration of the inotropic effect, anesthetized guinea-pig) was 58%. Also, in the series with anesthetized guinea-pig (slow i.v. infusion over 90 minutes, anesthetized guinea-pig), the Dead/treated is on record as 0/4. The compound further displayed a Maximum dose infused with anesthetized guinea-pig (slow i.v. infusion over 90 minutes, maximum dose infused in the survived animals) of 50.3. Further, the concentration for half-maximal inhibition (IC50) in series [1] (setting [2]) turned out to be 160 nM.

On to `COC(=O)[C@@H]1CC2C/C(=N/O[C@@H]3CCNC3)CC[C@]2(C)[C@H]2CC[C@]3(C)C(=O)CC[C@H]3[C@H]12` (stereo partly drawn) [I-cq, (E) 3-[3′-(R)-Pyrrolidinyl]oxyimino-7α-methoxycarbonylandrostane-17-one hydrochloride], for which, in series [1] (setting [3]), the IC50 amounted to 960 nM.

As for `CN1CCC(ON=C2CCC3(C)C(C2)C(=O)CC2C4CCC(=O)C4(C)CCC23)C1` (single isomer, unassigned) [I-al], in series [1] (Na+, K+-ATPase Inhibition IC50), the IC50 turned out to be 1300 nM.

`CC12CCC3C(CC(=O)C4CC(=NOCC5CCCN5)CCC43C)C1CCC2=O` (mixture of isomers) [I-ah, hydrochloride] returned an IC50 in series [1] (Na+, K+-ATPase Inhibition IC50) of 23000 nM.

Regarding `C[C@]12CC[C@H](OC(=O)C3CCNCC3)CC1C(=O)C[C@@H]1[C@@H]2CC[C@]2(C)C(=O)CC[C@@H]12` (stereo partly drawn) [I-cw, 3β-(4-Piperidinylcarbonyloxy)androstane-6,17-dione hydrochloride], in series [1] (Na+, K+-ATPase Inhibition IC50), inhibition was half-maximal at 11000 nM (IC50).

The compound `CC12CCC3C(CC(=O)C4CC(=NOC5CCNC5)CCC43C)C1CCC2=O` (single isomer, unassigned) [I-ad, hydrochloride] yielded an IC50 in series [1] (Na+, K+-ATPase Inhibition IC50) of 830 nM.

Consider `C=C1C[C@H]2[C@@H]3CCC(=O)[C@@]3(C)CC[C@@H]2[C@@]2(C)CC/C(=N\O[C@@H]3CCN(C)C3)C[C@]12O` [I-bm, (E) 3-[3′-(R)-(1-Methyl)-pyrrolidinyl]oxyimino-5α-hydroxy-6-methyleneandrostane-17-one fumarate], for which, in series [1] (setting [3]), the half-inhibitory concentration (IC50) is 1400 nM.

Compound `C=C1C[C@H]2[C@@H]3CCC(=O)[C@@]3(C)CC[C@@H]2[C@@]2(C)CC/C(=N\O[C@H]3CCN(C)C3)C[C@]12O` [I-bo, (E) 3-[3′-(S)-(1-Methyl)pyrrolidinyl]oxyimino)-5α-hydroxy-6-methyleneandrostane-17-one fumarate] had an IC50 in series [1] (Na+, K+-ATPase Inhibition IC50) of 21000 nM.

Regarding `CC12CCC3C(CC(O)C4CC(=NOC5CCNC5)CCC43C)C1CCC2O` (mixture of isomers) [I-do, (E,Z) 3-[3-(R)-Pyrrolidinyl]oxyiminoandrostane-6α,17β-diol hydrochloride], half-maximal inhibition in series [1] (Na+, K+-ATPase Inhibition IC50) (IC50) required 490 nM.

Take `C[C@]12CC[C@@H](SC3CCNC3)CC1C(=O)C[C@@H]1[C@@H]2CC[C@]2(C)C(=O)CC[C@@H]12` (mixture of isomers) [I-dc, 3α-[3-(RS)-Pyrrolidinylthio]androstane-6,17-dione fumarate]: the 50% inhibitory concentration (IC50) in series [1] (setting [3]) came to 95000 nM.

For `CO/N=C1\C[C@H]2[C@@H]3CCC(=O)[C@@]3(C)CC[C@@H]2[C@@]2(C)CC/C(=N\O[C@H]3CCN(C)C3)C[C@]12O` [I-by, (E) 3-[3′(S)-(1-Methyl)-pyrrolidinyl]oxyimino)-5α-hydroxy-6-(E)-methoxyiminoandrostane-17-one fumarate], the IC50 in series [1] (setting [2]) was found to be 12000 nM.

With `CC12CCC3C(C(=O)CC4CC(=NOC5CCNC5)CCC43C)C1CCC2=O` (single isomer, unassigned) [I-cb], in series [1] (Na+, K+-ATPase Inhibition IC50), the IC50 turned out to be 89 nM.

In the case of `CON=C1CC2C3CCC(=O)C3(C)CCC2C2(C)CCC(=NOC3CCN(C)C3)CC12` (mixture of isomers) [I-bf, (E,Z) 3-[3′-(S)-(1-Methyl)pyrrolidinyl]oxyimino-6-(E)-methoxyimino-androstane-17-one hydrochloride], the IC50 in series [1] (setting [2]) worked out at 7600 nM.

In series [1] (Na+, K+-ATPase Inhibition IC50), `C[C@H]1C[C@@H]2[C@H](CC[C@]3(C)C(=O)CC[C@@H]23)[C@@]2(C)CC/C(=N\O[C@@H]3CCNC3)CC12` (stereo partly drawn) [I-aw, (E) 3-[3-(R)-Pyrrolidinyl]oxyimino-6α-methylandrostane-17-one fumarate] returned a half-maximal inhibitory concentration (IC50) of 340 nM.

Regarding “3α-[2-(Azetidin-3-yl)-(Z)-vinyl]androstane-6,7-dione formate [I-dh]”, the half-inhibitory concentration (IC50) in series [1] (setting [3]) came out at 830 nM.

For the compound `CC12CCC3C(C(CO)CC4CC(=NOC5CCNC5)CCC43C)C1CCC2=O` (mixture of isomers) [I-ci, (E,Z) 3-[3′-(R)-Pyrrolidinyl]oxyimino-7β-hydroxymethylandrostane-17-one hydrochloride], in series [1] (setting [2]), the IC50 was determined as 330 nM.

In series [1] (Na+, K+-ATPase Inhibition IC50), `C[C@]12CC/C(=N\OC3CCNCC3)CC1C(=O)C[C@@H]1[C@@H]2CC[C@]2(C)C(=O)CC[C@@H]12` (stereo partly drawn) [I-aa, (E) 3-(4-Piperidyl)oxyiminoandrostane-6,17-dione hydrochloride] registered an IC50 of 4100 nM.

`CN1CCC(ON=C2CCC3(C)C(C2)C(=O)CC2C4CCC(=O)C4(C)CCC23)C1` (single isomer, unassigned) [I-ak, hydrochloride]: the half-maximal inhibitory concentration (IC50) in series [1] (Na+, K+-ATPase Inhibition IC50) was determined as 41000 nM.

For `COC1CC2CC(=NOC3CCNC3)CCC2(C)C2CCC3(C)C(=O)CCC3C12` (mixture of isomers) [I-dn, (E,Z) 3-[3-(R)-Pyrrolidinyl]oxyimino-7α-methoxyandrostane-17-one fumarate], in series [1] (setting [2]), the half-maximal inhibitory concentration (IC50) worked out at 5900 nM.

With “(E) 3-[3-(R)-Pyrrolidinyl]oxyiminoandrostane-6,7-dione hydrochloride [I-af]”, the IC50 in series [1] (setting [3]) was found to be 16 nM.

“3β-(3-(R,S)-Piperidinylcarbonyloxy)androstane-6,7-dione hydrochloride [I-cv]”: the concentration for half-maximal inhibition (IC50) in series [1] (setting [3]) worked out at 92000 nM.

Turning to `C=C1C[C@H]2[C@@H]3CCC(=O)[C@@]3(C)CC[C@@H]2[C@@]2(C)CC/C(=N/O[C@@H]3CCN(C)C3)C[C@]12O` [I-bl, (Z) 3-[3′-(R)-(1-Methyl)pyrrolidinyl]oxyimino-5α-hydroxy-6-methyleneandrostane-17-one fumarate], in series [1] (Na+, K+-ATPase Inhibition IC50), it took 92000 nM to reach half-maximal inhibition (IC50).

As to `CC12CCC3C(CC(CO)C4CC(=NOC5CCNC5)CCC43C)C1CCC2=O` (mixture of isomers) [I-ar, (E,Z) 3-[3-(R)-Pyrrolidinyl]oxyimino-6α-hydroxymethylandrostan-17-one hydrochloride], the IC50 in series [1] (setting [2]) was 26 nM.

In series [1] (Na+, K+-ATPase Inhibition IC50), `CC12CCC3C(CC(=O)C4CC(=NOC5CCCNC5)CCC43C)C1CCC2=O` (mixture of isomers) [I-aj, (E) 3-[3′-(R,S)-Piperidinyl]oxyiminoandrostane-6,7-dione hydrochloride] showed a half-maximal inhibitory concentration (IC50) of 33000 nM.

`C=C1C[C@H]2[C@@H]3CCC(=O)[C@@]3(C)CC[C@@H]2[C@@]2(C)CC/C(=N/O[C@H]3CCNC3)C[C@]12O` [I-bi, (Z) 3-[3′-(S)-Pyrrolidinyl]oxyimino-5α-hydroxy-6-methyleneandrostane-17-one fumarate] yielded a concentration for half-maximal inhibition (IC50) in series [1] (Na+, K+-ATPase Inhibition IC50) of 6000 nM.

For `CC12CCC3C(C(CO)CC4CC(=NOC5CCNC5)CCC43C)C1CCC2=O` (mixture of isomers) [I-ch, (E,Z) 3-[3′-(R)-Pyrrolidinyl]oxyimino-7α-hydroxymethylandrostane-17-one hydrochloride], the 50% inhibitory concentration (IC50) in series [1] (setting [2]) is 160 nM.

Turning to `C=C1C[C@H]2[C@@H]3CCC(=O)[C@@]3(C)CC[C@@H]2[C@@]2(C)CC/C(=N\O[C@H]3CCNC3)C[C@]12O` [I-bj, (E) 3-[3′-(S)-Pyrrolidinyl]oxyimino-5α-hydroxy-6-methyleneandrostane-17-one fumarate], in series [1] (Na+, K+-ATPase Inhibition IC50), the half-maximal inhibitory concentration (IC50) stood at 480 nM.

In turn, `CC12CCC3C(CC(=O)C4CC(=NOC5CNC5)CCC43C)C1CCC2=O` (mixture of isomers) [I-ab] returned an IC50 in series [1] (Na+, K+-ATPase Inhibition IC50) of 260 nM.

For `CC12CCC3C(CC(NC=O)C4CC(=NOC5CCNC5)CCC43C)C1CCC2=O` (mixture of isomers) [I-ay, (E,Z) 3-[3-(R)-Pyrrolidinyl]oxyimino-6α-formamidoandrostane-17-one hydrochloride], the half-maximal inhibitory concentration (IC50) in series [1] (setting [2]) turned out to be 41 nM.

Take `C[C@]12CC[C@@H](/C=C\[C@@H]3CCNC3)CC1C(=O)C[C@@H]1[C@@H]2CC[C@]2(C)C(=O)CC[C@@H]12` (stereo partly drawn) [I-de, 3α-[2-(Pyrrolidin-3-(S)-yl)-(Z)-vinyl]androstane-6,17-dione formate]: the half-maximal inhibitory concentration (IC50) in series [1] (Na+, K+-ATPase Inhibition IC50) was determined as 390 nM.

`C=C1CC2C3CCC(=O)C3(C)CCC2C2(C)CCC(=NOC3CCNC3)CC12` (mixture of isomers) [I-aq, (E,Z) 3-[3-(R)-Pyrrolidinyl]oxyimino-6-methyleneandrostane-17-one hydrochloride]: 46 nM corresponded to half-maximal inhibition in series [1] (Na+, K+-ATPase Inhibition IC50) (IC50).

Turning to `CN1CCC(ON=C2CCC3(C)C(C2)C(CO)C(=O)C2C4CCC(=O)C4(C)CCC23)C1` (mixture of isomers) [I-ct, (E,Z) 3-[3′-(R)-(1-Methyl)pyrrolidinyl]oxyimino-6α-hydroxymethylandrostane-7,17-dione fumarate], the IC50 in series [1] (setting [2]) worked out at 270 nM.

`CC12CCC3C(CC4(CC4)C4CC(=NOC5CCNC5)CCC34C)C1CCC2=O` (mixture of isomers) [I-ba, (Z,E) 3-(3-(R)-Pyrrolidinyloxyimino)-6-(spirocyclopropane)androstane-17-one hydrochloride]: the half-inhibitory concentration (IC50) in series [1] (setting [2]) is 220 nM.

Regarding `CC12CCC3C(CC(=O)C4CC(=NOC5CCNC5)CCC43C)C1CCC2=O` (single isomer, unassigned) [I-ag, hydrochloride], in series [1] (Na+, K+-ATPase Inhibition IC50), the half-maximal inhibitory concentration (IC50) turned out to be 110 nM.

Compound `C[C@]12CC/C(=N\O[C@H]3CCNC3)CC1[C@@H](CO)C(=O)[C@@H]1[C@@H]2CC[C@]2(C)C(=O)CC[C@@H]12` (stereo partly drawn) [I-dj, (E)-3-[3-(S)-Pyrrolidinyl)oxyimino]-6α-hydroxymethylandrostane-7,17-dione fumarate] displayed an IC50 in series [1] (Na+, K+-ATPase Inhibition IC50, dog kidney enzyme, hydrolysis of 32P-ATP in presence and absence of compound) of 36 nM.

As to `CC12CCC3C(CC(=O)C4CC(C=CC5CCNCC5)CCC43C)C1CCC2=O` (stereo not drawn) [I-dg, 3α-[2-(Pyperidin-4-yl)-(Z)-vinyl]androstane-6,17-dione formate], the IC50 in series [1] (setting [2]) worked out at 890 nM.
